17 compounds from ChEMBL document CHEMBL3580576, “Eremophilane Sesquiterpenes and Diphenyl Thioethers from the Soil Fungus Penicillium copticola PSU-RSPG138” (J Nat Prod, 2015) can be followed below.

The test system of assay [1] is Mycobacterium tuberculosis. The assay can be described thus: Antimycobacterial activity against GFP expressing Mycobacterium tuberculosis H37Ra assessed as microbial growth inhibition incubated at 37 degC for 7 days by fluorescence based assay. In kind it is functional.
Assay [2] relates to Plasmodium falciparum. The assay can be described thus: Antimalarial activity against multidrug-resistant Plasmodium falciparum K1 assessed as reduction in parasite growth incubated for 24 hrs by [3H]hypoxanthine incorporation based microculture radioisotope technique based method. In kind it is functional, organism-based.
The test system of assay [3] is MCF7. The assay can be described thus: Antiproliferative activity against human MCF7 cells assessed as reduction in cell growth incubated at 37 degC for 3 days by resazurin microplate assay. In kind it is functional, cell-based. (Resazurin is reduced to fluorescent resorufin, in cell work by metabolically active cells.)
Assay [4] has as its system KB. The assay can be described thus: Antiproliferative activity against human KB cells assessed as reduction in cell growth incubated at 37 degC for 3 days by resazurin microplate assay. In kind it is functional, cell-based.
For assay [5], the system named is Vero. The assay can be described thus: Cytotoxicity against African green monkey Vero cells assessed as reduction in cell growth incubated at 37 degC for 4 days by fluorescence based assay. As to conditions: Chlorocebus sabaeus, 96 h.
[6] abbreviates: Plasmodium falciparum, K1, read-out: IC50.
The mark [7] stands for this setting: Homo sapiens, KB, 72 h, read-out: IC50.
[8] abbreviates: Homo sapiens, MCF7, 72 h, read-out: IC50.

Each structure is given as a SMILES string. ≈ marks a conversion by molar mass, not a printed value. Calls of active or inactive are those of the source. No cut-off for these calls is given here.

The MIC is the least concentration at which growth counts as inhibited. Broadly, the IC50 is the midpoint of a concentration-inhibition curve.

For `CO[C@H]1/C=C/O[C@@]2(C)Oc3c(C)c(O)c4c(O)c(c(/C=N/N5CCN(C)CC5)c(O)c4c3C2=O)NC(=O)/C(C)=C\C=C\[C@H](C)[C@H](O)[C@@H](C)[C@@H](O)[C@@H](C)[C@H](OC(C)=O)[C@@H]1C` [RIFAMPIN], the MIC in assay [1] (168 h) came out at 0.025 µg/mL (≈ 0.0304 µM).

On to `C=C(CO)[C@@H]1C[C@@]2(C)C(=CC1=O)CC[C@@H](O)[C@@H]2C`, for which, in assay [1], the MIC entry was “inactive”. In addition, the IC50 entry in assay [2] is “Not Active”; in assay [3] (mcf7) it was “Not Active”; in assay [4] (kb), “Not Active”; in assay [5], 56.2 µM.

As to `C=C(C)[C@@]12O[C@@H]1[C@@]1(C)C(=CC2=O)CC[C@@H](OC(C)=O)[C@@H]1C`, in assay [1], the MIC entry is “inactive”. Also, the concentration for half-maximal inhibition (IC50) in assay [2] (setting [6]) was 4.55 µM; in assay [3] (mcf7), “Not Active”; in assay [4] (setting [7]), 35.7 µM; in assay [5], 7.51 µM.

For the compound `C=C(C)[C@@H]1C[C@@]2(C)C(=CC1=O)CC[C@@H](O)[C@@H]2C`, the MIC result in assay [1] is “inactive”. Also, the 50% inhibitory concentration (IC50) in assay [2] (setting [6]) was 39.3 µM; in assay [3] (mcf7), “Not Active”; in assay [4] (setting [7]) it was 186 µM; in assay [5], 44.5 µM.

As for `C=C(C)[C@@]12O[C@@H]1[C@@]1(C)C(=CC2=O)CC[C@@H](OC(=O)Cc2ccc(O)c(Cl)c2)[C@@H]1C`, the minimum inhibitory concentration (MIC) in assay [1] (168 h) stood at 50 µg/mL (≈ 120 µM). For the same compound, the IC50 in assay [2] (setting [6]) was 3.45 µM; in assay [3] (setting [8]), 39.6 µM; in assay [4] (setting [7]), 57 µM; in assay [5] it was 21.1 µM.

Take `C=C(C)[C@@]12O[C@@H]1[C@@]1(C)C(=C[C@@H]2O)CC[C@@H](O)[C@@H]1C`: the MIC entry in assay [1] is “inactive”. In addition, the IC50 result was “Not Active” in assay [2], “Not Active” in assay [3] (mcf7), “Not Active” in assay [4] (kb) and 24.1 µM in assay [5].

Turning to `Cc1c2ccncc2c(C)c2c1[nH]c1ccccc12` [ELLIPTECINE], the IC50 in assay [4] (setting [7]) is 1.98 µM; in assay [5], 3.8 µM.

`COc1cccc2c1C(=O)c1c(O)c3c(c(O)c1C2=O)C[C@@](O)(C(=O)CO)C[C@@H]3O[C@H]1C[C@H](N)[C@H](O)[C@H](C)O1` [DOXORUBICIN]: the IC50 in assay [3] (setting [8]) stood at 11.5 µM; in assay [4] (setting [7]), 0.91 µM.

In the case of `C=C(C)[C@@]12O[C@@H]1[C@@]1(C)C(=CC2=O)CC[C@@H](O)[C@@H]1C`, the MIC entry in assay [1] is “inactive”. Besides, the half-maximal inhibitory concentration (IC50) in assay [2] (setting [6]) was 1.53 µM; in assay [3] (mcf7), “Not Active”; in assay [4] (setting [7]) it was 17.8 µM; in assay [5] it was 4.23 µM.

For the compound `C=C(CO)[C@@]12O[C@@H]1[C@@]1(C)C(=CC2=O)CC[C@@H](O)[C@@H]1C`, in assay [1], the MIC result is “inactive”. Moreover, the IC50 in assay [2] (setting [6]) is 5.41 µM; in assay [3] (mcf7) it was “Not Active”; in assay [4] (setting [7]) it was 31.8 µM; in assay [5], 6.05 µM.

For the compound `NNC(=O)c1ccncc1` [ISONIAZID], the MIC in assay [1] (168 h) is 0.094 µg/mL (≈ 0.685 µM).

With `CN[C@@H]1[C@H](O[C@H]2[C@H](O[C@H]3[C@H](O)[C@@H](O)[C@H](N=C(N)N)[C@@H](O)[C@@H]3N=C(N)N)O[C@@H](C)[C@]2(O)C=O)O[C@@H](CO)[C@H](O)[C@H]1O` [STREPTOMYCIN], the minimum inhibitory concentration (MIC) in assay [1] (168 h) is 0.625 µg/mL (≈ 1.07 µM).

For `CC/C(=C(\c1ccccc1)c1ccc(OCCN(C)C)cc1)c1ccccc1` [TAMOXIFEN], the IC50 in assay [3] (setting [8]) worked out at 18.7 µM.

With `C=C(C)C1=C[C@@]2(C)C(=CC1=O)CC[C@@H](O)[C@@H]2C`, the MIC entry in assay [1] was “inactive”. Further, the IC50 in assay [2] (setting [6]) is 15.7 µM; in assay [3] (mcf7), “Not Active”; in assay [4] (kb), “Not Active”; in assay [5], 34.6 µM.

As for `CC1COc2c(N3CCN(C)CC3)c(F)cc3c(=O)c(C(=O)O)cn1c23` (stereo unspecified) [OFLOXACIN], the MIC in assay [1] (168 h) worked out at 0.391 µg/mL (≈ 1.08 µM).

As to `C[C@H]1[C@@H](O)O[C@@H]2O[C@@]3(C)CC[C@H]4[C@H](C)CC[C@@H]1[C@@]24OO3` [ARTENIMOL], the IC50 in assay [2] (setting [6]) turned out to be 0.00126 µM.

Consider `CC[C@@H](CO)NCCN[C@@H](CC)CO` [ETHAMBUTOL], for which, in assay [1] (168 h), the MIC was 0.983 µg/mL (≈ 4.81 µM).
